pIC50: −log10 of the molar value. Where two headings read alike, the source gives them in different places. Where only a bound is given, the exact number is not on record here.

Experimental findings from patent US20250019387A1 (Frontier Medicines Corporation, priority 0001, published 2025) are described below.

The target in this experiment is KRAS G12C and cRAF (Ras-binding domain) interaction (Homo sapiens (Human), UniProt P01116, C118S/C51S/C80L/G12C). Nature of the experiment: Inhibition of KRAS G12C and cRAF binding (AlphaScreen). Put shortly:
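IC50 values come from 4-parameter nonlinear regression of AlphaScreen signal (680 nm excitation, 570 nm emission). Compound plates sat 19-20 h at room temperature before RBD and donor/acceptor beads were added in Hepes pH 7.4 buffer with 150 mM NaCl, 5 mM MgCl2, 2% DMSO for 60-90 min; biotin-AviTag-GST replaced RBD to flag assay-technology interferers.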

Setting [1] is: additional exemplary compounds, KRAS G12C and cRAF binding, read-out: RAF1 RBD IC50.
Where [2] appears, read: GMPPNP-loaded KRAS G12C, 19-20 hours incubation with compound, read-out: IC50 (Inhibition of KRAS G12C and cRAF Binding).

KRAS G12C and cRAF (Ras-binding domain) interaction, sequence (P01116 other isoform, or with tags, fused parts or gaps G12C/C51S/C80L/C118S): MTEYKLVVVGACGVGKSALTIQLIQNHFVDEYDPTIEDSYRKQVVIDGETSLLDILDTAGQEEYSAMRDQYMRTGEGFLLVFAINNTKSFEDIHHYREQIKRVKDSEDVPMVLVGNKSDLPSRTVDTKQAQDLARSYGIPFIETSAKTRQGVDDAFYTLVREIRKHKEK

As to `O=C(/C=C/CN1CCOCC1)N1C[C@@H]2C[C@H]1CN2c1nc(OC[C@@]23CCCN2C[C@H](F)C3)nc2c(F)c(-c3cccc4cccc(Cl)c34)ncc12`, the pIC50 under setting [1] is below 6.30.
For the compound `CN(CC1CN(C(=O)/C=C/c2nc(C(C)(C)O)no2)C1)c1nc(OC[C@@]23CCCN2C[C@H](F)C3)nc2c(F)c(-c3cccc4ccc(F)c(Cl)c34)ncc12` [Example 78, (E)-1-(3-(((7-(8-chloro-7-fluoronaphthalen-1-yl)-8-fluoro-2-(((2R,7aS)-2-fluorotetrahydro-1H-pyrrolizin-7a(5H)-yl)methoxy)pyrido[4,3-d]pyrimidin-4-yl)(methyl)amino)methyl)azetidin-1-yl)-3-(3-(2-hydroxypropan-2-yl)-1,2,4-oxadiazol-5-yl)prop-2-en-1-one], under setting [2], the negative-log IC50 (pIC50) was above 8.00.
As to `C#Cc1c(F)ccc2cccc(-c3ncc4c(N(C)[C@@H]5CCN(C(=O)/C=C/CN6CC[C@@H](OC)C6)C5)nc(OC[C@@]56CCCN5C[C@H](F)C6)nc4c3F)c12` [Example 287, (E)-1-((R)-3-((7-(8-ethynyl-7-fluoronaphthalen-1-yl)-8-fluoro-2-(((2R,7aS)-2-fluorotetrahydro-1H-pyrrolizin-7a(5H)-yl)methoxy)pyrido[4,3-d]pyrimidin-4-yl)(methyl)amino)pyrrolidin-1-yl)-4-((R)-3-methoxypyrrolidin-1-yl)but-2-en-1-one], under setting [2], the pIC50 is 7.00 to 8.00.
For the compound `CN(c1nc(OC[C@@H]2CCCN2C)nc2c(F)c(-c3cccc4cccc(Cl)c34)ncc12)C1CCN(C#N)C1` (stereo partly drawn) [Example 35, 3-((7-(8-chloronaphthalen-1-yl)-8-fluoro-2-(((S)-1-methylpyrrolidin-2-yl)methoxy)pyrido[4,3-d]pyrimidin-4-yl)(methyl)amino)pyrrolidine-1-carbonitrile], the pIC50 under setting [2] was 7.00 to 8.00.
Turning to `Cc1nccc(/C=C/C(=O)N2CC3(CCN(c4nc(OC[C@@]56CCCN5C[C@H](F)C6)nc5c(F)c(-c6cccc7cccc(Cl)c67)ncc45)C3)C2)n1`, the negative-log IC50 (pIC50) under setting [1] was below 6.30.
As to `Cc1nccc(/C=C/C(=O)N2C[C@H]3C[C@@H]2CN3c2nc(OC[C@@]34CCCN3C[C@H](F)C4)nc3c(F)c(-c4cccc5cccc(Cl)c45)ncc23)n1`, the negative logarithm of the IC50 (pIC50) under setting [1] was below 6.30.
As for `C=CC(=O)N1CC[C@@H](N(C)c2nc(OC[C@@]34CCCN3C[C@H](F)C4)nc3c(F)c(-c4cccc5cccc(C#CC)c45)ncc23)C1` [Example 306, 1-((R)-3-((8-fluoro-2-(((2R,7aS)-2-fluorotetrahydro-1H-pyrrolizin-7a(5H)-yl)methoxy)-7-(8-(prop-1-yn-1-yl)naphthalen-1-yl)pyrido[4,3-d]pyrimidin-4-yl)(methyl)amino)pyrrolidin-1-yl)prop-2-en-1-one], the pIC50 under setting [2] was below 6.30.
Turning to `C#Cc1c(F)ccc2cccc(-c3ncc4c(N(C)CC5CN(C(=O)/C=C/c6cc(C)nc(C)n6)C5)nc(OC[C@@]56CCCN5C[C@H](F)C6)nc4c3F)c12` [Example 280, (E)-3-(2,6-dimethylpyrimidin-4-yl)-1-(3-(((7-(8-ethynyl-7-fluoronaphthalen-1-yl)-8-fluoro-2-(((2R,7aS)-2-fluorotetrahydro-1H-pyrrolizin-7a(5H)-yl)methoxy)pyrido[4,3-d]pyrimidin-4-yl)(methyl)amino)methyl)azetidin-1-yl)prop-2-en-1-one], the pIC50 under setting [2] was 7.00 to 8.00.
For `COC(=O)/C=C/C(=O)N1CC[C@@H](N(C)c2nc(OC[C@@H]3CCCN3C)nc3c(F)c(-c4cccc5cccc(Cl)c45)ncc23)C1` [Example 27, methyl(E)-4-((R)-3-((7-(8-chloronaphthalen-1-yl)-8-fluoro-2-(((S)-1-methylpyrrolidin-2-yl)methoxy)pyrido[4,3-d]pyrimidin-4-yl)(methyl)amino)pyrrolidin-1-yl)-4-oxobut-2-enoate], the negative logarithm of the IC50 (pIC50) under setting [2] was above 8.00.
For `C=CC(=O)N1CC[C@@H](N(C)c2nc(OC[C@@]34CCCN3C[C@H](F)C4)nc3c(F)c(-c4cccc5c(C)c(F)ccc45)ncc23)C1`, the pIC50 under setting [1] was below 6.30.
`COC(=O)/C=C/C(=O)N1CC(CN(C)c2nc(OCC34CCCN3CCC4)nc3c(F)c(-c4cccc5cccc(Cl)c45)ncc23)C1` [Example 25, methyl(E)-4-(3-(((7-(8-chloronaphthalen-1-yl)-8-fluoro-2-((tetrahydro-1H-pyrrolizin-7a(5H)-yl)methoxy)pyrido[4,3-d]pyrimidin-4-yl)(methyl)amino)methyl)azetidin-1-yl)-4-oxobut-2-enoate]: the negative logarithm of the IC50 (pIC50) under setting [2] is above 8.00.
Same read-out and setting: with `C=CC(=O)N1C[C@H](O)[C@@H](N(C)c2nc(OC[C@@]34CCCN3C[C@H](F)C4)nc3c(F)c(-c4cccc5cccc(Cl)c45)ncc23)C1` [Example 57, 1-((3S,4S)-3-((7-(8-chloronaphthalen-1-yl)-8-fluoro-2-(((2R,7aS)-2-fluorohexahydro-1H-pyrrolizin-7a-yl)methoxy)pyrido[4,3-d]pyrimidin-4-yl)(methyl)amino)-4-hydroxypyrrolidin-1-yl)prop-2-en-1-one] the figure was 6.30 to 7.00.
In the case of `C#Cc1c(F)ccc2cccc(-c3ncc4c(N(C)[C@@H]5CCN(C(=O)/C=C/CN6C7COCC6C7)C5)nc(OC[C@@]56CCCN5C[C@H](F)C6)nc4c3F)c12` [Example 293, (E)-4-(3-oxa-6-azabicyclo[3.1.1]heptan-6-yl)-1-((R)-3-((7-(8-ethynyl-7-fluoronaphthalen-1-yl)-8-fluoro-2-(((2R,7aS)-2-fluorotetrahydro-1H-pyrrolizin-7a(5H)-yl)methoxy)pyrido[4,3-d]pyrimidin-4-yl)(methyl)amino)pyrrolidin-1-yl)but-2-en-1-one], the pIC50 under setting [2] was above 8.00.
On to `CN(c1nc(OCC23CCCN2CCC3)nc2c(F)c(-c3cccc4cccc(Cl)c34)ncc12)[C@@H]1CCN(C(=O)/C=C/c2cn(C)cn2)C1` [Example 115, (R,E)-1-(3-((7-(8-chloronaphthalen-1-yl)-8-fluoro-2-((hexahydro-1H-pyrrolizin-7a-yl)methoxy)pyrido[4,3-d]pyrimidin-4-yl)(methyl)amino)pyrrolidin-1-yl)-3-(1-methyl-1H-imidazol-4-yl)prop-2-en-1-one], for which the negative-log IC50 (pIC50) under setting [2] is below 6.30.
With `C=CC(=O)CCCN(C)c1nc(OC[C@@H]2CCCN2C)nc2c1CCN(c1cccc3ccccc13)C2`, the negative-log IC50 (pIC50) under setting [1] is below 6.30.
On to `C=CC(=O)N1C[C@@H](F)[C@H](N(C)c2nc(OCC34CCCN3CCC4)nc3c(F)c(-c4cccc5ccc(F)c(Cl)c45)ncc23)C1` [Example 184, 1-((3R,4R)-3-((7-(8-chloro-7-fluoronaphthalen-1-yl)-8-fluoro-2-((hexahydro-1H-pyrrolizin-7a-yl)methoxy)pyrido[4,3-d]pyrimidin-4-yl)(methyl)amino)-4-fluoropyrrolidin-1-yl)prop-2-en-1-one], for which, under setting [2], the pIC50 is 7.00 to 8.00.
Regarding `COC(=O)/C=C/C(=O)N1CC[C@H](N(C)c2nc(OC[C@@H]3CCCN3C)nc3c(F)c(-c4cccc5cccc(Cl)c45)ncc23)C1` [Example 26, methyl(E)-4-((S)-3-((7-(8-chloronaphthalen-1-yl)-8-fluoro-2-(((S)-1-methylpyrrolidin-2-yl)methoxy)pyrido[4,3-d]pyrimidin-4-yl)(methyl)amino)pyrrolidin-1-yl)-4-oxobut-2-enoate], the pIC50 under setting [2] was below 6.30.
